From ChEMBL document CHEMBL1671627, “Increasing trends in antimicrobial resistance among clinically important anaerobes and Bacteroides fragilis isolates causing nosocomial infections: emerging resistance to carbapenems” (2008)
Converted amounts (≈) assume the structure as drawn.

Key:
[1] = test system: Bacteroides uniformis; test: Antibacterial activity against beta-lactamase producing Bacteroides uniformis by CLSI agar dilution method; assay type: functional
[2] = test system: Bacteroides thetaiotaomicron; test: Antibacterial activity against beta-lactamase producing Bacteroides thetaiotaomicron by CLSI agar dilution method; assay type: functional
[3] = test system: Prevotella bivia; test: Antibacterial activity against Prevotella bivia by CLSI agar dilution method; assay type: functional
[4] = test system: Finegoldia magna; test: Antibacterial activity against beta-lactamase producing Finegoldia magna by CLSI agar dilution method; assay type: functional
[5] = test system: Fusobacterium varium; test: Antibacterial activity against Fusobacterium varium by CLSI agar dilution method; assay type: functional
[6] = test system: Prevotella buccae; test: Antibacterial activity against Prevotella buccae by CLSI agar dilution method; assay type: functional; details: Segatella buccae
[7] = test system: Peptoniphilus asaccharolyticus; test: Antibacterial activity against beta-lactamase producing Peptoniphilus asaccharolyticus by CLSI agar dilution method; assay type: functional
[8] = test system: Peptostreptococcus anaerobius; test: Antibacterial activity against beta-lactamase producing Peptostreptococcus anaerobius by CLSI agar dilution method; assay type: functional
[9] = test system: Prevotella intermedia; test: Antibacterial activity against Prevotella intermedia by CLSI agar dilution method; assay type: functional
[10] = test system: Veillonella parvula; test: Antibacterial activity against Veillonella parvula by CLSI agar dilution method; assay type: functional
[11] = test system: Phocaeicola vulgatus; test: Antibacterial activity against beta-lactamase producing Bacteroides vulgatus by CLSI agar dilution method; assay type: functional
[12] = test system: Clostridium paraputrificum; test: Antibacterial activity against beta-lactamase producing Clostridium paraputrificum by CLSI agar dilution method; assay type: functional
[13] = test system: Clostridium septicum; test: Antibacterial activity against beta-lactamase producing Clostridium septicum by CLSI agar dilution method; assay type: functional
[14] = test system: Bacteroides caccae; test: Antibacterial activity against beta-lactamase producing Bacteroides caccae by CLSI agar dilution method; assay type: functional
[15] = test system: Fusobacterium necrophorum; test: Antibacterial activity against Fusobacterium necrophorum by CLSI agar dilution method; assay type: functional
[16] = test system: Parvimonas micra; test: Antibacterial activity against beta-lactamase producing Micromonas micros by CLSI agar dilution method; assay type: functional
[17] = test system: Prevotella melaninogenica; test: Antibacterial activity against Prevotella melaninogenica by CLSI agar dilution method; assay type: functional
[18] = test system: Clostridium perfringens; test: microbe, parasite or virus in culture; assay type: functional
[19] = test system: Clostridium tertium; test: Antibacterial activity against beta-lactamase producing Clostridium tertium by CLSI agar dilution method; assay type: functional
[20] = test system: Fusobacterium mortiferum; test: Antibacterial activity against Fusobacterium mortiferum by CLSI agar dilution method; assay type: functional
[21] = test system: Bacteroides fragilis; test: Antibacterial activity against Bacteroides fragilis by CLSI agar dilution method; assay type: functional
[22] = test system: Fusobacterium nucleatum; test: Antibacterial activity against Fusobacterium nucleatum by CLSI agar dilution method; assay type: functional
[23] = test system: Fusobacterium varium; test: Antibacterial activity against Fusobacterium varium assessed as resistant isolates by CLSI agar dilution method; assay type: functional
[24] = test system: Fusobacterium mortiferum; test: Antibacterial activity against Fusobacterium mortiferum assessed as resistant isolates by CLSI agar dilution method; assay type: functional
[25] = test system: Fusobacterium mortiferum; test: Antibacterial activity against Fusobacterium mortiferum assessed as susceptible isolates by CLSI agar dilution method; assay type: functional
[26] = test system: Bacteroides caccae; test: Antibacterial activity against beta-lactamase producing Bacteroides caccae assessed as susceptible isolates by CLSI agar dilution method; assay type: functional
[27] = test system: Phocaeicola vulgatus; test: Antibacterial activity against beta-lactamase producing Bacteroides vulgatus assessed as susceptible isolates by CLSI agar dilution method; assay type: functional
[28] = test system: Prevotella bivia; test: Antibacterial activity against Prevotella bivia assessed as susceptible isolates by CLSI agar dilution method; assay type: functional
[29] = test system: Bacteroides fragilis; test: Antibacterial activity against Bacteroides fragilis assessed as susceptible isolates by CLSI agar dilution method; assay type: functional
[30] = test system: Prevotella buccae; test: Antibacterial activity against Prevotella buccae assessed as resistant isolates by CLSI agar dilution method; assay type: functional, Segatella buccae
[31] = test system: Fusobacterium necrophorum; test: Antibacterial activity against Fusobacterium necrophorum assessed as resistant isolates by CLSI agar dilution method; assay type: functional
[32] = test system: Fusobacterium necrophorum; test: Antibacterial activity against Fusobacterium necrophorum assessed as susceptible isolates by CLSI agar dilution method; assay type: functional
[33] = test system: Prevotella intermedia; test: Antibacterial activity against Prevotella intermedia assessed as resistant isolates by CLSI agar dilution method; assay type: functional
[34] = test system: Bacteroides fragilis; test: Antibacterial activity against Bacteroides fragilis assessed as resistant isolates by CLSI agar dilution method; assay type: functional
[35] = test system: Bacteroides uniformis; test: Antibacterial activity against beta-lactamase producing Bacteroides uniformis assessed as susceptible isolates by CLSI agar dilution method; assay type: functional
[36] = test system: Fusobacterium nucleatum; test: Antibacterial activity against Fusobacterium nucleatum assessed as resistant isolates by CLSI agar dilution method; assay type: functional
[37] = test system: Prevotella intermedia; test: Antibacterial activity against Prevotella intermedia assessed as susceptible isolates by CLSI agar dilution method; assay type: functional
[38] = test system: Fusobacterium nucleatum; test: Antibacterial activity against Fusobacterium nucleatum assessed as susceptible isolates by CLSI agar dilution method; assay type: functional
[39] = test system: Prevotella melaninogenica; test: Antibacterial activity against Prevotella melaninogenica assessed as susceptible isolates by CLSI agar dilution method; assay type: functional
[40] = test system: Bacteroides caccae; test: Antibacterial activity against beta-lactamase producing Bacteroides caccae assessed as resistant isolates by CLSI agar dilution method; assay type: functional
[41] = test system: Bacteroides thetaiotaomicron; test: Antibacterial activity against beta-lactamase producing Bacteroides thetaiotaomicron assessed as resistant isolates by CLSI agar dilution method; assay type: functional
[42] = test system: Prevotella bivia; test: Antibacterial activity against Prevotella bivia assessed as resistant isolates by CLSI agar dilution method; assay type: functional
[43] = test system: Prevotella melaninogenica; test: Antibacterial activity against Prevotella melaninogenica assessed as resistant isolates by CLSI agar dilution method; assay type: functional
[44] = test system: Bacteroides thetaiotaomicron; test: Antibacterial activity against beta-lactamase producing Bacteroides thetaiotaomicron assessed as susceptible isolates by CLSI agar dilution method; assay type: functional
[45] = test system: Phocaeicola vulgatus; test: Antibacterial activity against beta-lactamase producing Bacteroides vulgatus assessed as resistant isolates by CLSI agar dilution method; assay type: functional
[46] = test system: Bacteroides uniformis; test: Antibacterial activity against beta-lactamase producing Bacteroides uniformis assessed as resistant isolates by CLSI agar dilution method; assay type: functional
[47] = test system: Prevotella buccae; test: Antibacterial activity against Prevotella buccae assessed as susceptible isolates by CLSI agar dilution method; assay type: functional, Segatella buccae
[48] = test system: Fusobacterium varium; test: Antibacterial activity against Fusobacterium varium assessed as susceptible isolates by CLSI agar dilution method; assay type: functional

C[C@H]1COc2c(N3CCN(C)CC3)c(F)cc3c(=O)c(C(=O)O)cn1c23.C[C@H]1COc2c(N3CCN(C)CC3)c(F)cc3c(=O)c(C(=O)O)cn1c23.O [LEVOFLOXACIN]
MIC50 [1]: 2 µg/mL | MIC90 [1]: 8 µg/mL | MIC50 [2]: 4 µg/mL | MIC90 [2]: 8 µg/mL | MIC50 [3]: 1 µg/mL | MIC90 [3]: 16 µg/mL | MIC50 [4]: 0.5 µg/mL | MIC90 [4]: 32 µg/mL | MIC50 [5]: 2 µg/mL | MIC90 [5]: 4 µg/mL | MIC50 [6]: 1 µg/mL | MIC90 [6]: 16 µg/mL | MIC50 [7]: 0.5 µg/mL | MIC90 [7]: 32 µg/mL | MIC50 [8]: 0.5 µg/mL | MIC90 [8]: 32 µg/mL | MIC50 [9]: 1 µg/mL | MIC90 [9]: 16 µg/mL | MIC [10]: 0.06 µg/mL | MIC50 [11]: 2 µg/mL | MIC90 [11]: 8 µg/mL | MIC50 [12]: 0.5 µg/mL | MIC90 [12]: 4 µg/mL | MIC50 [13]: 0.5 µg/mL | MIC90 [13]: 4 µg/mL | MIC50 [14]: 2 µg/mL | MIC90 [14]: 8 µg/mL | MIC50 [15]: 2 µg/mL | MIC90 [15]: 4 µg/mL | MIC50 [16]: 0.5 µg/mL | MIC90 [16]: 32 µg/mL | MIC50 [17]: 1 µg/mL | MIC90 [17]: 16 µg/mL | MIC90 [18]: 4 µg/mL | MIC50 [19]: 0.5 µg/mL | MIC90 [19]: 4 µg/mL | MIC50 [20]: 2 µg/mL | MIC90 [20]: 4 µg/mL | MIC50 [21]: 2 µg/mL | MIC90 [21]: 8 µg/mL | MIC50 [22]: 2 µg/mL | MIC90 [22]: 4 µg/mL

CC1(C)S[C@@H]2[C@H](NC(=O)Cc3ccccc3)C(=O)N2[C@H]1C(=O)O [PENICILLIN G]
MIC50 [1]: > 128 µg/mL | MIC90 [1]: > 128 µg/mL | MIC50 [2]: 16 µg/mL (≈ 47.8 µM) | MIC90 [2]: > 128 µg/mL | Activity [23]: 11% | MIC50 [3]: 16 µg/mL (≈ 47.8 µM) | MIC90 [3]: 64 µg/mL (≈ 191 µM) | MIC [4]: 0.03 µg/mL (≈ 0.0897 µM) | MIC50 [4]: 0.03 µg/mL (≈ 0.0897 µM) | MIC90 [4]: 1 µg/mL (≈ 2.99 µM) | MIC50 [5]: 0.25 µg/mL (≈ 0.748 µM) | MIC90 [5]: 1 µg/mL (≈ 2.99 µM) | MIC50 [6]: 16 µg/mL (≈ 47.8 µM) | MIC90 [6]: 64 µg/mL (≈ 191 µM) | MIC [7]: 0.03 µg/mL (≈ 0.0897 µM) | MIC50 [7]: 0.03 µg/mL (≈ 0.0897 µM) | MIC90 [7]: 1 µg/mL (≈ 2.99 µM) | Activity [24]: 11% | Activity [25]: 85% | Activity [26]: 0% | MIC [8]: 0.03 µg/mL (≈ 0.0897 µM) | MIC50 [8]: 0.03 µg/mL (≈ 0.0897 µM) | MIC90 [8]: 1 µg/mL (≈ 2.99 µM) | MIC50 [9]: 16 µg/mL (≈ 47.8 µM) | MIC90 [9]: 64 µg/mL (≈ 191 µM) | Activity [27]: 0% | Activity [28]: 6% | Activity [29]: 0% | Activity [30]: 95% | Activity [31]: 11% | MIC [10]: 0.06 µg/mL (≈ 0.179 µM) | MIC50 [11]: > 128 µg/mL | MIC90 [11]: > 128 µg/mL | MIC50 [12]: 0.25 µg/mL (≈ 0.748 µM) | MIC90 [12]: 4 µg/mL (≈ 12 µM) | Activity [32]: 85% | Activity [33]: 95% | MIC50 [13]: 0.25 µg/mL (≈ 0.748 µM) | MIC90 [13]: 4 µg/mL (≈ 12 µM) | MIC50 [14]: > 128 µg/mL | MIC90 [14]: > 128 µg/mL | MIC50 [15]: 0.25 µg/mL (≈ 0.748 µM) | MIC90 [15]: 1 µg/mL (≈ 2.99 µM) | Activity [34]: 100% | Activity [35]: 0% | MIC [16]: 0.03 µg/mL (≈ 0.0897 µM) | MIC50 [16]: 0.03 µg/mL (≈ 0.0897 µM) | MIC90 [16]: 1 µg/mL (≈ 2.99 µM) | Activity [36]: 11% | Activity [37]: 6% | Activity [38]: 85% | Activity [39]: 6% | MIC50 [17]: 16 µg/mL (≈ 47.8 µM) | MIC90 [17]: 64 µg/mL (≈ 191 µM) | Activity [40]: 100% | Activity [41]: 100% | Activity [42]: 95% | MIC50 [18]: 0.25 µg/mL (≈ 0.748 µM) | MIC90 [18]: 4 µg/mL (≈ 12 µM) | Activity [43]: 95% | Activity [44]: 0% | Activity [45]: 100% | MIC50 [19]: 0.25 µg/mL (≈ 0.748 µM) | MIC90 [19]: 4 µg/mL (≈ 12 µM) | MIC50 [20]: 0.25 µg/mL (≈ 0.748 µM) | MIC90 [20]: 1 µg/mL (≈ 2.99 µM) | MIC50 [21]: 16 µg/mL (≈ 47.8 µM) | MIC90 [21]: > 128 µg/mL | Activity [46]: 100% | MIC50 [22]: 0.25 µg/mL (≈ 0.748 µM) | MIC90 [22]: 1 µg/mL (≈ 2.99 µM) | Activity [47]: 6% | Activity [48]: 85%
